Reference: PMC4847484, “Chemical generation and modification of peptides containing multiple dehydroalanines” (Chemical Communications (Cambridge, England), 2015)
Read-outs that look alike come from different tables or passages of the source. Positions of bridges follow the written chain, without caps; N, C: chain ends. No end group written: not given here.

How the values were obtained:
[1] = the molecule shown is the open-chain precursor, crosslinker bond, 31-membered ring
[2] = target: human plasma kallikrein (Homo sapiens, UniProt P03952); test: Kallikrein inhibition assay (residual HPK activity, fluorogenic substrate Z-Phe-Arg-AMC); type: biochemical
[3] = TBMB/NH4HCO3, aq NH4HCO3 (pH 8)/MeCN, 1.67 mM

Chain of human plasma kallikrein (P03952 391-638 limits assumed): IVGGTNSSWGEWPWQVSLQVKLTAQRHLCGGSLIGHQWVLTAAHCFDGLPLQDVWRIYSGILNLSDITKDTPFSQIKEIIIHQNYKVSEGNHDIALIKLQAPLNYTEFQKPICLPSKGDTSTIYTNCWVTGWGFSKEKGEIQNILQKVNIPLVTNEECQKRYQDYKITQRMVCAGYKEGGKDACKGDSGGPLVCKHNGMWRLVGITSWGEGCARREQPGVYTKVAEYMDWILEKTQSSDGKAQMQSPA
Chain of human plasma kallikrein (P03952 20-390 partner limits assumed): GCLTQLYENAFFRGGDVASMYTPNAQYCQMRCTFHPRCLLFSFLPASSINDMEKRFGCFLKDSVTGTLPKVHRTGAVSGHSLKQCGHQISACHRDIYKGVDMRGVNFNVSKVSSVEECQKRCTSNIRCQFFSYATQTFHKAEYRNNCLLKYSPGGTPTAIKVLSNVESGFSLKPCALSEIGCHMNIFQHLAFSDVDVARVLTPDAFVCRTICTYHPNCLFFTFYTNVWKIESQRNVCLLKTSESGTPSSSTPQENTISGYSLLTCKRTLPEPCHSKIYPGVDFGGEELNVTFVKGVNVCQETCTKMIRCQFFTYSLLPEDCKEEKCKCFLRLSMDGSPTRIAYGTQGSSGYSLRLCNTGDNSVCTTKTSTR

Substance	ring closure, yield after HPLC [1, 3] [%]	further results
H-Ala-dCys-Ser-Asp-Arg-Phe-Arg-Asn-dCys-Pro-Ala-Asp-Glu-Ala-Leu-Cys-Gly-NH2?	26	–
H-Ala-Cys-Ser-Asp-Arg-Phe-Arg-Asn-Cys-Pro-Ala-Asp-Glu-Ala-Leu-dCys-Gly-NH2?	10	–
H-Ala-dCys-Ser-Asp-Arg-Phe-Arg-Asn-dCys-Pro-Ala-Asp-Glu-Ala-Leu-dCys-Gly-NH2?	26	–
13: stereochemically scrambled bicyclic peptide mixture from cyclisation of 12 with trithiol 2 (ACSDRFRNCPADEALCG; linker 2-9-16 via 1,3,5‑tris(mercaptomethyl)benzene; also: mixture of 8 stereoisomers (D/L at Cys2, Cys9, Cys16)) [compound 13]	–	IC50 ([2]; crude reaction mixture of the conversion of 12 to 13, before purification, same kallikrein inhibition assay): 238 ± 21 nM; IC50 ([2]; purified peptide, HPK incubated 30 min at room temperature with bicyclic peptide, substrate Z-Phe-Arg-AMC, Tris 10 mM pH 7.4, NaCl, MgCl2, CaCl2, 0.1% BSA, 0.01% Triton X-100, 5% DMSO, ex 355 / em 460 nm, logistic fit): 144 ± 31 nM
H-Ala-Cys-Ser-Asp-Arg-Phe-Arg-Asn-dCys-Pro-Ala-Asp-Glu-Ala-Leu-dCys-Gly-NH2?	24	–
H-Ala-Dha-Ser-Asp-Arg-Phe-Arg-Asn-Dha-Pro-Ala-Asp-Glu-Ala-Leu-Dha-Gly-NH2	–	ring closure, yield after HPLC ([1]; 1,3,5-tris(mercaptomethyl)benzene/K2CO3, H2O/DMF 1:1, 1.15 mM, 37.0 °C): 43%
H-Ala-dCys-Ser-Asp-Arg-Phe-Arg-Asn-Cys-Pro-Ala-Asp-Glu-Ala-Leu-Cys-Gly-NH2?	26	–
H-Ala-dCys-Ser-Asp-Arg-Phe-Arg-Asn-Cys-Pro-Ala-Asp-Glu-Ala-Leu-dCys-Gly-NH2?	16	–
H-Ala-Cys-Ser-Asp-Arg-Phe-Arg-Asn-Cys-Pro-Ala-Asp-Glu-Ala-Leu-Cys-Gly-NH2?	29	–
H-Ala-Cys-Ser-Asp-Arg-Phe-Arg-Asn-dCys-Pro-Ala-Asp-Glu-Ala-Leu-Cys-Gly-NH2?	16	–
